Experimental data reported in PubChem BioAssay AID248 (DTP/NCI, 2004).
Where “and” joins values, the source holds several entries; their conditions need not be identical. Identical values can stand only once. Inconclusive results and toxic doses are left out.

Tested on: L1210 leukemia ip in BDF1 mice, survival T/C
Assay: NCI In Vivo Anticancer Drug Screen. Data for tumor model L1210 Leukemia (intraperitoneal) in B6D2F1 (BDF1) mice
Settings: endpoint: mean survival time, higher = longer survival
Outline: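 Survival endpoint. Drug-treated group vs vehicle group, expressed as T divided by C. Tumor passaged by transplantation.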

[1] = dose: 100.0 mg/kg/injection, schedule: Q01DX001 (ip), vehicle: saline with Tween-80
[2] = dose: 200.0 mg/kg/injection, schedule: Q01DX001 (ip), vehicle: saline with Tween-80
[3] = dose: 400.0 mg/kg/injection, schedule: Q01DX001 (ip), vehicle: saline with Tween-80
[4] = dose: 100.0 mg/kg/injection, schedule: Q04DX003 (ip), vehicle: Klucel (hydroxypropylcellulose) (HPC)
[5] = dose: 200.0 mg/kg/injection, schedule: Q04DX003 (ip), vehicle: Klucel (hydroxypropylcellulose) (HPC)
[6] = dose: 400.0 mg/kg/injection, schedule: Q04DX003 (ip), vehicle: Klucel (hydroxypropylcellulose) (HPC)
[7] = dose: 100.0 mg/kg/injection, schedule: Q01DX009 (ip), vehicle: saline with Tween-80
[8] = dose: 200.0 mg/kg/injection, schedule: Q01DX009 (ip), vehicle: saline with Tween-80
[9] = dose: 400.0 mg/kg/injection, schedule: Q01DX009 (ip), vehicle: saline with Tween-80
[10] = dose: 25.0 mg/kg/injection, schedule: Q04DX003 (ip), vehicle: Klucel (hydroxypropylcellulose) (HPC)
[11] = dose: 50.0 mg/kg/injection, schedule: Q04DX003 (ip), vehicle: Klucel (hydroxypropylcellulose) (HPC)
[12] = dose: 100.0 mg/kg/injection, schedule: Q01DX001 (ip), vehicle: carboxymethylcellulose (CMC)
[13] = dose: 200.0 mg/kg/injection, schedule: Q01DX001 (ip), vehicle: carboxymethylcellulose (CMC)
[14] = dose: 400.0 mg/kg/injection, schedule: Q01DX001 (ip), vehicle: carboxymethylcellulose (CMC)

## CC(=O)OC1CC2C(C(=O)O)C2C1OC(C)=O (configuration not stated)
[1]
  T/C: 104 % of control
[2]
  T/C: 92 % of control
[3]
  T/C: 95 % of control

## Nc1ncnc(N)c1NC(=O)c1cc(Br)c(OCc2ccccc2)c(Br)c1
dose: 100.0 mg/kg/injection, schedule: Q01DX001 (ip), vehicle: DMSO
  T/C: 95 % of control
dose: 200.0 mg/kg/injection, schedule: Q01DX001 (ip), vehicle: DMSO
  T/C: 95 % of control
dose: 400.0 mg/kg/injection, schedule: Q01DX001 (ip), vehicle: DMSO
  T/C: 95 % of control

## O=NN(c1ccccc1)c1ccc2ccccc2c1
[4]
  T/C: 105 % of control
[5]
  T/C: 110 % of control
[6]
  T/C: 110 % of control

## COC(C)(OC)C(N)=O
[7]
  T/C: 96 % of control
[4]
  T/C: 94 % of control
[8]
  T/C: 111 % of control
[5]
  T/C: 96 % of control
[9]
  T/C: 98 % of control
[6]
  T/C: 92 % of control

## Cn1[nH]c(=O)c2ccccc2c1=O
dose: 8.2 mg/kg/injection, schedule: Q04DX003 (ip), vehicle: Klucel (hydroxypropylcellulose) (HPC)
  T/C: 104 % of control
dose: 12.5 mg/kg/injection, schedule: Q04DX003 (ip), vehicle: Klucel (hydroxypropylcellulose) (HPC)
  T/C: 109 % of control and 120 % of control
dose: 18.0 mg/kg/injection, schedule: Q04DX003 (ip), vehicle: Klucel (hydroxypropylcellulose) (HPC)
  T/C: 108 % of control
[10]
  T/C: 97 % of control
[11]
  T/C: 110 % of control
[4]
  T/C: 106 % of control
[5]
  T/C: 106 % of control
[6]
  T/C: 103 % of control

## O=C(OCC1OC(n2cnc3c(=S)nc[nH]c32)C(OC(=O)c2ccc(Cl)cc2)C1OC(=O)c1ccc(Cl)cc1)c1ccc(Cl)cc1 (configuration not stated)
dose: 100.0 mg/kg/injection, schedule: Q01DX001 (ip), vehicle: saline
  T/C: 104 % of control
dose: 100.0 mg/kg/injection, schedule: Q01DX009 (ip), vehicle: saline
  T/C: 122 % of control
dose: 200.0 mg/kg/injection, schedule: Q01DX001 (ip), vehicle: saline
  T/C: 101 % of control
dose: 400.0 mg/kg/injection, schedule: Q01DX001 (ip), vehicle: saline
  T/C: 113 % of control
dose: 800.0 mg/kg/injection, schedule: Q01DX009 (ip), vehicle: saline
  T/C: 166 % of control

## CC(=O)Oc1ccccc1C1OC(=O)c2ccccc2N1C(C)=O (configuration not stated)
[1]
  T/C: 106 % of control
[7]
  T/C: 101 % of control and 103 % of control
dose: 100.0 mg/kg/injection, schedule: Q04DX002 (ip), vehicle: saline with Tween-80
  T/C: 105 % of control and 87 % of control
[2]
  T/C: 104 % of control
[8]
  T/C: 93 % of control and 102 % of control
dose: 200.0 mg/kg/injection, schedule: Q04DX002 (ip), vehicle: saline with Tween-80
  T/C: 96 % of control and 97 % of control
[3]
  T/C: 103 % of control
[9]
  T/C: 93 % of control
dose: 400.0 mg/kg/injection, schedule: Q04DX002 (ip), vehicle: saline with Tween-80
  T/C: 94 % of control and 105 % of control

## S=c1sc2ccccc2n1CCNc1ccccc1
dose: 50.0 mg/kg/injection, schedule: Q01DX001 (ip), vehicle: carboxymethylcellulose (CMC)
  T/C: 96 % of control
[12]
  T/C: 100 % of control
[13]
  T/C: 100 % of control
[14]
  T/C: 89 % of control

## COC(=O)C(=C/C=C/c1cc(O)c(O)c(O)c1)C(=O)OC
dose: 50.0 mg/kg/injection, schedule: Q01DX001 (ip), vehicle: other
  T/C: 104 % of control
dose: 100.0 mg/kg/injection, schedule: Q01DX001 (ip), vehicle: other
  T/C: 98 % of control
dose: 200.0 mg/kg/injection, schedule: Q01DX001 (ip), vehicle: other
  T/C: 95 % of control

## O=C(O)/C=C/[P+](c1ccccc1)(c1ccccc1)c1ccccc1
dose: 5.0 mg/kg/injection, schedule: Q01DX001 (ip), vehicle: saline
  T/C: 101 % of control
dose: 10.0 mg/kg/injection, schedule: Q01DX001 (ip), vehicle: saline
  T/C: 106 % of control
dose: 20.0 mg/kg/injection, schedule: Q01DX001 (ip), vehicle: saline
  T/C: 101 % of control

## COC(=O)C1C2CC3c4[nH]c5cc(OC)ccc5c4CCN3CC2CC(OC2CCCCO2)C1OC (configuration not stated)
[10]
  T/C: 98 % of control
[11]
  T/C: 100 % of control
[4]
  T/C: 117 % of control

## O=C(/C=C/c1ccccc1)c1ccccc1O
[7]
  T/C: 89 % of control
dose: 100.0 mg/kg/injection, schedule: Q04DX003 (ip), vehicle: saline with Tween-80
  T/C: 100 % of control
[8]
  T/C: 86 % of control
dose: 200.0 mg/kg/injection, schedule: Q04DX003 (ip), vehicle: saline with Tween-80
  T/C: 98 % of control
[9]
  T/C: 94 % of control
dose: 400.0 mg/kg/injection, schedule: Q04DX003 (ip), vehicle: saline with Tween-80
  T/C: 98 % of control

## O=C(NCCCCCCCCCCNC(=O)Nc1cccc(C2=NCC(O)CN2)c1)Nc1cccc(C2=NCC(O)CN2)c1 (configuration not stated)
dose: 5.25 mg/kg/injection, schedule: Q01DX Z (ip), vehicle: carboxymethylcellulose (CMC)
  T/C: 106 % of control
dose: 10.5 mg/kg/injection, schedule: Q01DX Z (ip), vehicle: carboxymethylcellulose (CMC)
  T/C: 117 % of control
dose: 21.0 mg/kg/injection, schedule: Q01DX Z (ip), vehicle: carboxymethylcellulose (CMC)
  T/C: 103 % of control
dose: 42.0 mg/kg/injection, schedule: Q01DX Z (ip), vehicle: carboxymethylcellulose (CMC)
  T/C: 97 % of control

## CC1CN1CC1CO1 (configuration not stated)
dose: 0.5 mg/kg/injection, schedule: Q01DX001 (ip), vehicle: saline
  T/C: 98 % of control
dose: 0.5 mg/kg/injection, schedule: Q01DX009 (ip), vehicle: acetone
  T/C: 97 % of control
dose: 0.5 mg/kg/injection, schedule: Q04DX003 (ip), vehicle: acetone
  T/C: 104 % of control
dose: 1.0 mg/kg/injection, schedule: Q01DX001 (ip), vehicle: saline
  T/C: 95 % of control
dose: 1.0 mg/kg/injection, schedule: Q01DX009 (ip), vehicle: acetone
  T/C: 96 % of control
dose: 1.0 mg/kg/injection, schedule: Q04DX003 (ip), vehicle: acetone
  T/C: 101 % of control
dose: 2.0 mg/kg/injection, schedule: Q01DX001 (ip), vehicle: saline
  T/C: 98 % of control
dose: 2.0 mg/kg/injection, schedule: Q01DX009 (ip), vehicle: acetone
  T/C: 100 % of control
dose: 2.0 mg/kg/injection, schedule: Q04DX003 (ip), vehicle: acetone
  T/C: 104 % of control
dose: 2.97 mg/kg/injection, schedule: Q01DX009 (ip), vehicle: acetone
  T/C: 97 % of control
dose: 4.5 mg/kg/injection, schedule: Q01DX009 (ip), vehicle: acetone
  T/C: 97 % of control
dose: 6.75 mg/kg/injection, schedule: Q01DX009 (ip), vehicle: acetone
  T/C: 115 % of control
dose: 9.9 mg/kg/injection, schedule: Q01DX009 (ip), vehicle: acetone
  T/C: 102 % of control
dose: 15.0 mg/kg/injection, schedule: Q01DX009 (ip), vehicle: acetone
  T/C: 100 % of control
dose: 22.5 mg/kg/injection, schedule: Q01DX009 (ip), vehicle: acetone
  T/C: 94 % of control

## CCNc1nc2c(N)ncnc2n1C1CC(O)C(CO)O1 (configuration not stated)
[12]
  T/C: 96 % of control
[13]
  T/C: 98 % of control
[14]
  T/C: 93 % of control

## O=C(/C=C/c1ccccc1)Sc1ccccc1
dose: 100.0 mg/kg/injection, schedule: Q04DX002 (ip), vehicle: Klucel (hydroxypropylcellulose) (HPC)
  T/C: 88 % of control
dose: 200.0 mg/kg/injection, schedule: Q04DX002 (ip), vehicle: Klucel (hydroxypropylcellulose) (HPC)
  T/C: 88 % of control
dose: 400.0 mg/kg/injection, schedule: Q04DX002 (ip), vehicle: Klucel (hydroxypropylcellulose) (HPC)
  T/C: 107 % of control

## NC1(C(=O)NCC(=O)O)C2CC3CC(C2)CC1C3 (configuration not stated)
dose: 25.0 mg/kg/injection, schedule: Q01DX009 (ip), vehicle: Klucel (hydroxypropylcellulose) (HPC)
  T/C: 94 % of control
dose: 50.0 mg/kg/injection, schedule: Q01DX009 (ip), vehicle: Klucel (hydroxypropylcellulose) (HPC)
  T/C: 100 % of control
dose: 100.0 mg/kg/injection, schedule: Q01DX009 (ip), vehicle: Klucel (hydroxypropylcellulose) (HPC)
  T/C: 97 % of control and 99 % of control
dose: 200.0 mg/kg/injection, schedule: Q01DX009 (ip), vehicle: Klucel (hydroxypropylcellulose) (HPC)
  T/C: 103 % of control
dose: 400.0 mg/kg/injection, schedule: Q01DX009 (ip), vehicle: Klucel (hydroxypropylcellulose) (HPC)
  T/C: 102 % of control

## Cc1ccc2cccc(CC(=O)O)c2c1
dose: 100.0 mg/kg/injection, schedule: Q01DX005 (ip), vehicle: saline with Tween-80
  T/C: 104 % of control
[7]
  T/C: 96 % of control
dose: 200.0 mg/kg/injection, schedule: Q01DX005 (ip), vehicle: saline with Tween-80
  T/C: 112 % of control
[8]
  T/C: 96 % of control
dose: 400.0 mg/kg/injection, schedule: Q01DX005 (ip), vehicle: saline with Tween-80
  T/C: 108 % of control
[9]
  T/C: 115 % of control
